In brackets after ≈: the same amount, converted by molar mass.
Key:
[1] = system: HeLa cells (Cervical Cancer); assay: HeLa cells (Cervical Cancer) MTT assay; type: cell-based; settings: Homo sapiens, HeLa, 48 h, ± SD from three independent experiments, NA: did not show anticancer activity at 30 µM
Description: (§1) Cytotoxicity against BJ Human fibroblast cells, and anti-cancer activity against PC3, HeLa and MCF-7 cancer cell lines were evaluated by following the procedure as described in the literature (Supplementary Materials). […]
(§2) of positive control – mean of O.D of negative control)*100).
(§3) The results (% inhibition) were processed by using Soft- Max Pro software (Molecular Device, USA).
(§4) Following concentrations were used to calculate (in case) of IC50:
(§5) Standard drug used in the MTT assay was doxorubicin. […]
C. HeLa cells (Cervical Cancer) assay
Cytotoxic activity of compounds was evaluated in 96-well flat-bottomed micro plates by using the standard MTT (3-[4, 5-dimethylthiazole-2-yl]-2, 5-diphenyl-tetrazolium bromide) colorimetric assay40.
For this purpose, HeLa cells (Cervical Cancer) were cultured in Minimum Essential Medium Eagle, supplemented with 5% of fetal bovine serum (FBS) , 100 IU/ml of penicillin and 100 µg/ml of streptomycin in 75 cm2 flasks, and kept in 5% CO2 incubator at 37 °C. Exponentially growing cells were harvested, counted with haemocytometer and diluted with a particular medium. Cell culture with the concentration of 6x10^4 cells/ml was prepared and introduced (100 µL/well) into 96 -well plates. After overnight incubation, medium was removed and 200 µL of fresh medium was added with different concentrations of compounds (1-30µM). After 48 hrs, 200 µL MTT (0.5 mg/ml) was added to each well and incubated further for 4 hrs. Subsequently, 100µL of DMSO was added to each well. The extent of MTT reduction to formazan within cells was calculated by measuring the absorbance at 570 nm, using a micro plate reader (Spectra Max plus, Molecular Devices, CA, USA). The cytotoxicity was recorded as concentration causing 50% growth inhibition (IC 50) for HeLa. The percent inhibition was calculated by using the following formula: […]
The results (% inhibition) were processed by using Soft - Max Pro software (Molecular Device, USA).
(§6) 1. Mosmann T. Rapid colorimetric assay for cellular growth and survival: application to proliferation and cytotoxicity assays. J Immunol Meth 1983, 65, 55–63. […]

[2] = system: PC3 cells (Prostate Cancer); assay: PC3 cells (Prostate Cancer) MTT assay; type: cell-based; settings: for IC50: MTT assay, 48 hrs, ± SD from three independent experiments, NA: did not show anticancer activity at 30 µM
Description: (§7) Cytotoxicity against BJ Human fibroblast cells, and anti-cancer activity against PC3, HeLa and MCF-7 cancer cell lines were evaluated by following the procedure as described in the literature (Supplementary Materials).
The Biological Activity Assays Protocols
A. PC3 cells (Prostate Cancer) assay […]
For this purpose, PC3 cells (Prostate Cancer) were cultured in Dulbecco’s Modified Eagle Medium, supplemented with 5% of fetal bovine serum (FBS), 100 IU/ml of penicillin and 100 µg/ml of streptomycin in 75 cm2 flasks, and kept in 5% CO2 incubator at 37 °C. Exponentially growing cells were harvested, counted with haemocytometer and diluted with a particular medium. Cell culture with the concentration of 1x10^5 cells/ml was prepared and introduced (100 µL/well) into 96-well plates. After overnight incubation, medium was removed and 200 µL of fresh medium was added with different concentrations of compounds (1-30µM). After 48 hrs, 200 µL MTT (0.5 mg/ml) was added to each well and incubated further for 4 hrs. Subsequently, 100µL of DMSO was added to each well. The extent of MTT reduction to formazan within cells was calculated by measuring the absorbance at 570 nm, using a micro plate reader (Spectra Max plus, Molecular Devices, CA, USA). The cytotoxicity was recorded as concentration causing 50% growth inhibition (IC50) for PC3 cells. The percent inhibition was calculated by using the following formula: […]
as §2, §3
Standard drug used in the MTT assay was doxorubicin.
as §6

[3] = system: MCF-7 breast cancer cell line; assay: MCF-7 breast cancer cell line MTT assay; type: cell-based; settings: for IC50: MTT assay, 48 hours, ± SD from three independent experiments, NA: did not show anticancer activity at 30 µM
Description: as §1
(§8) of positive control – mean of O.D of negative control)*100). […]
as §4, §5
D. MCF-7 breast cancer cell line assay.
MTT assay is a rapid and quantitative assay capable of measuring the surviving or proliferating cells.
It is based on the reduction of tetrazolium salt MTT (3-(4,5-dimethylthiazol-yl)-2,5-diphenyl tetrazolium bromide) by various dehydrogenase enzymes present in living cells. The tetrazolium ring present in MTT is cleaved in active mitochondria, which results in production of purple colored formazan crystals. These crystals are dissolved in DMSO and optical density of the color produced is taken by spectrophotometer (ELISA reader), with high efficiency and accuracy.
This assay was optimized and slightly modified according to our cell lines, i.e. MCF-7 breast cancer cell […]
1. MCF-7 cell line were cultured in Dulbecco’s modified Eagle medium (containing 10% fetal bovine serum) in 75 cc flasks, and kept in 5% CO 2 incubator at 37 °C.
2. Upon confluency, cells were harvested and plated in 96-well tissue culture treated flat bottom plates (seeding density 8,000 cells/well for MCF-7) in 100 µL medium.
3. Next day, compounds were added in triplicate at 50 µM concentration, and incubated for 48 hours. For natural extracts, the concentration was 50 µg/mL.
4. After 48 hrs incubation, the compounds were removed and 200 µL MTT at 0.5 mg/mL was added to each well and incubated at 37 °C for 3 hours.
5. Formazan crystals, formed by reduction of MTT were dissolved in 100 µL DMSO and absorbance was taken at 570 nm using micro-plate reader (Spectra Max plus, Molecular […]
6. The percent inhibition or decrease in viable cells was calculated by following formula:
% Inhibition = 100 - (mean of O.D. of test compound - mean of O.D. of negative control) / (mean of O.D. of positive control - mean of O.D. of negative control) x 100) […]
Twenty (20) mM stock concentration of compounds were diluted to working concentration of 50 µM, and then further serial dilutions were made in order to get less than 50% inhibition.
The IC50 was then calculated by using EZ-fit5 software.

Human fibroblast BJ = assay: Cytotoxicity MTT assay, BJ human fibroblast cells; type: cell-based; settings: 48 hrs, ± SD from three independent experiments, NA: did not show activity at 30 µM
Description: as §7
The Biological Activity Assays Protocols […]
as §8, §5
B. Cytotoxicity assay Protocol (BJ Human fibroblast cells) […]
standard MTT (3-[4, 5-dimethylthiazole-2-yl]-2, 5-diphenyl-tetrazolium bromide) colorimetric assay (Price & J. McMillan1, 1990). For this purpose, BJ Human fibroblast cells were cultured in Dulbecco’s Modified Eagle Medium, supplemented with 10% of fetal bovine serum (FBS), 100 IU/ml of penicillin and 100 µg/ml of streptomycin and 2 mM L‐glutamine in 75 cm2 flasks, and kept in 5% CO2 incubator at 37 °C (Mannerström, Toimela, Sarkanen & Heinonen, 2017).
Exponentially growing cells were harvested, counted with haemocytometer and diluted with a particular medium. Cell culture with the concentration of 6x10^4cells/ml was prepared and introduced (100 µL/well) into 96-well plates. After overnight incubation, medium was removed and 200 µL of fresh medium was added with different concentrations of compounds (1 -30µM). After 48 hrs, 200 µL MTT (0.5 mg/ml) was added to each well and incubated further for 3 hrs.
Subsequently, 100µL of DMSO was added to each well. The extent of MTT reduction to formazan within cells was calculated by measuring the absorbance at 550 nm, using a micro plate reader (Spectra Max plus, Molecular Devices, CA, USA). The cytotoxicity was recorded as concentra tion causing 50% growth inhibition (IC50) for BJ cells. The percent inhibition was calculated by using the following […]
Following concentrations were used to calculate (in case) of IC50: […]

A-549 (human lung) = system: A-549 (human lung); parameters: method as in PMID 8597898, doi:10.1016/j.tet.2007.05.127, doi:10.1021/jo00248a040; settings: cited from earlier work
HCT-8 (human colon) = system: HCT-8 (human colon); parameters: method as in PMID 8597898, doi:10.1016/j.tet.2007.05.127, doi:10.1021/jo00248a040; settings: cited from earlier work
MDAMB (human mammary) = system: MDAMB (human mammary); parameters: method as in PMID 8597898, doi:10.1016/j.tet.2007.05.127, doi:10.1021/jo00248a040; settings: cited from earlier work
P-388 cell lines = system: P-388 cell lines; parameters: method as in PMID 8597898, doi:10.1016/j.tet.2007.05.127, doi:10.1021/jo00248a040; settings: cited from earlier work

IC50 [1] [µM]	IC50 ([2]; Homo sapiens, PC-3, 48 h) [µM]	melting point [°C]	IC50 ([3]; Homo sapiens, MCF7, 48 h) [µM]	IC50 [3] [µM]	IC50 [2] [µM]	Compound	anticancer activity against MCF-7 breast cancer cell line (in words) ([3]; in comparison to doxorubicin)	IC50 (Human fibroblast BJ) [µM]	anticancer activity against PC3 prostate cancer cell line (in words) ([2]; in comparison to doxorubicin)	IC50 against A-549 (human lung) cancer cell line (A-549 (human lung)) [µg/mL]	IC50 against HCT-8 (human colon) cancer cell line (HCT-8 (human colon)) [µg/mL]	IC50 against MDAMB (human mammary) cancer cell line (MDAMB (human mammary)) [µg/mL]	IC50, anti-tumor activity against P-388 cell lines (P-388 cell lines) [µg/mL]
22.5 ± 0.9	11.4 ± 0.2	114 to 115				O=C(CC(c1cc2ccccc2o1)c1c[nH]c2ccccc12)c1ccccc1 (stereo not drawn) [Compound 3a, 3-(Benzofuran-2-yl)-3-(1H-indol-3-yl)-1-phenylpropan-1-one]	inactive						
8.2 ± 0.2	22.2 ± 0.5	157 to 158	12.3 ± 0.04	12.37 ± 0.04		O=C(CC(c1cc2ccccc2o1)c1c[nH]c2ccccc12)c1ccc(F)cc1 (stereo not drawn) [Compound 3b, 3-(Benzofuran-2-yl)-1-(4-fluorophenyl)-3-(1H-indol-3-yl)propan-1-one]		> 30					
10.8 ± 0.1	21.9 ± 1.5	167 to 168	25.9 ± 0.8			O=C(CC(c1cc2ccccc2o1)c1c[nH]c2ccc(Br)cc12)c1ccc(F)cc1 (stereo not drawn) [Compound 3c, 3-(Benzofuran-2-yl)-3-(5-bromo-1H-indol-3-yl)-1-(4-fluorophenyl)propan-1-one]		> 30					
11.9 ± 0.2	16.3 ± 1.6	126 to 127	19.3 ± 0.78		27 ± 0.4	O=C(CC(c1cc2ccccc2o1)c1c[nH]c2ccccc12)c1ccc(Cl)cc1 (stereo not drawn) [Compound 3f, 3-(Benzofuran-2-yl)-1-(4-chlorophenyl)-3-(1H-indol-3-yl)propan-1-one]		> 30					
15.2 ± 0.2	19.3 ± 0.1	154 to 155	22.9 ± 0.43	22.9 ± 0.43		COc1cccc(C(=O)CC(c2cc3ccccc3o2)c2c[nH]c3cc(F)ccc23)c1 (stereo not drawn) [Compound 3m, 3-(Benzofuran-2-yl)-3-(6-fluoro-1H-indol-3-yl)-1-(3-methoxyphenyl)propan-1-one]		> 50					
18.4 ± 0.2	29.7 ± 0.5	60 to 61	28.6 ± 0.33			COc1ccccc1C(=O)CC(c1cc2ccccc2o1)c1c[nH]c2ccc(Br)cc12 (stereo not drawn) [Compound 3s, 3-(Benzofuran-2-yl)-3-(5-bromo-1H-indol-3-yl)-1-(2-methoxyphenyl)propan-1-one]			inactive				
						CN1CC(c2c[nH]c3c(Br)c(Br)cc(O)c23)NCC1c1c[nH]c2cc(Br)ccc12 (stereo not drawn) [dragmacidin]				1 to 10	1 to 10	1 to 10	15 (≈ 25.7 µM)

— publication PMC8070033, “Bimetallic Iron–Palladium Catalyst System as a Lewis-Acid for the Synthesis of Novel Pharmacophores Based Indole Scaffold as Anticancer Agents” (Molecules, 2021)
